From patent publication US20090191173A1, “Induction Of Neurogenesis And Stem Cell Therapy In Combination With Copolymer 1” (priority 2004, published 2009)

Tests used:
aNPCs = test: Neuronal differentiation of aNPCs with CD4+ T cells, T cell-conditioned medium or cytokines; format: cell-based, mouse; conditions: 5 days in culture with cytokine, concentrations as low as 1 ng/ml
Method: (xvii) Co-culturing of neural progenitor cells and T cells. CD4+ T cells were purified from lymph nodes of 8-week-old C57B16/J mice as previously described (Kipnis et al., 2004). T cells were activated in RPMI medium supplemented with L-glutamine (2 mM), 2-mercaptoethanol (5×10^−5 M), sodium pyruvate (1 mM), penicillin (100 IU/ml), streptomycin (100 μg/ml), nonessential amino acids (1 ml/100 ml), and autologous serum 2% (v/v) in the presence of mouse recombinant IL-2 (mrIL-2; 5 ng/ml) and soluble anti-CD28 and anti-CD3. antibodies (1 ng/ml). T cells were co-cultured (5×10^4 cells/well) with aNPCs (5×10^4 cells/well) for 5 d on cover slips coated with Matrigel (BD Biosciences) in 24-well plates. The cultures were then fixed with 2.5% paraformaldehyde in PBS for 30 min at room temperature and stained for neuronal markers.
We therefore sought to determine whether direct interaction between aNPCs and T cells would also result in an altered pattern of aNPC differentiation. To address this question, we activated CD4+ T cells in vitro by a cognate protocol (with anti-CD3 antibodies, anti-CD28 antibodies, and IL-2) for 24 h and then allowed their activation to continue in co-cultures with aNPCs in a transwell culture system. […] After 5 days in culture the aNPCs in the lower chamber were fixed and analyzed for the appearance of newly formed neurons. […]

[1] = tested on: neural progenitor cells (NPCs); test: Neurogenesis from NPCs co-cultured with microglia pre-activated by aggregated Aβ and cytokines; format: cell-based, mouse; conditions: 10 days; Aβ 5 μM 48 h, cytokines 10 ng/ml
Method: (xx) Reagents. Recombinant mouse IFN-γ and IL-4 (both containing endotoxin at a concentration below 0.1 ng/μg cytokine) were obtained from R&D Systems (Minneapolis, Minn.). β-amyloid peptides [amyloid protein fragment 1-40 and 1-42 (Aβ1-40/1-42)] were purchased from Sigma-Aldrich, St. Louis, Mo. The Aβ peptides were dissolved in endotoxin-free water, and Aβ aggregates were formed by incubation of Aβ, as described (Ishii et al., 2000). (xxv) Neural progenitor cell culture. Coronal sections (2 mm thick) of tissue containing the subventricular zone of the lateral ventricle were obtained from the brains of adult C57B1/6J mice. […] After centrifugation at 110×g for 15 min at room temperature, the tissue was mechanically dissociated by pipette trituration. Cells obtained from single-cell suspensions were plated (3500 cells/cm^2) in 75-cm^2 Falcon tissue-culture flasks (BD Biosciences, San Diego, Calif.), in NPC-culturing medium [Dulbecco's modified Eagles's medium (DMEM)/F12 medium (Gibco/Invitrogen, Carlsbad, Calif.) containing 2 mM L-glutamine, 0.6% glucose, 9.6 μg/ml putrescine, 6.3 ng/ml progesterone, 5.2 ng/ml sodium selenite, 0.02 mg/ml insulin, 0.1 mg/ml transferrin, 2 μg/ml heparin (all from Sigma-Aldrich, Rehovot, Israel), fibroblast growth factor-2 (human recombinant, 20 ng/ml), and epidermal growth factor (human recombinant, 20 ng/ml; both from Peprotech, Rocky Hill, N.J.)]. Spheres were passaged every 4-6 days and replated as single cells. Green fluorescent protein (GFP)-expressing NPCs were obtained as previously described (Pluchino et al., 2003). (xxvi) Primary microglial culture. Brains from neonatal (P0-P1) C57B1/6J mice were stripped of their meninges and minced with scissors under a dissecting microscope (Zeiss, Stemi DV4, Germany) in Leibovitz-15 medium (Biological Industries, Kibbutz Beit Ha-Emek, Israel). […] The cell suspension was washed in culture medium for glial cells [DMEM supplemented with 10% fetal calf serum (FCS; Sigma-Aldrich, Rehovot), L-glutamine (1 mM), sodium pyruvate (1 mM), penicillin (100 U/ml), and streptomycin ([…])] and cultured at 37° C./5% CO2 in 75-cm^2 Falcon tissue-culture flasks (BD Biosciences) coated with poly-D-lysine (PDL) (10 mg/ml; Sigma-Aldrich, Rehovot) in borate buffer (2.37 g borax and 1.55 g boric acid dissolved in 500 ml sterile water, pH 8.4) for 1 h, then rinsed thoroughly with sterile, glass-distilled water. Half of the medium was changed after 6 h in culture and every 2nd day thereafter, starting on day 2, for a total culture time of 10-14 days. […]

Q: With IL-4: recombinant interleukin-4 as the substance, how does the “β-III-tubulin expression in aNPCs” value (aNPCs) read?
A: Its value is “no change in β-III-tubulin expression”.

Q: And the “neurogenesis (GFP+/βIIIT+ cells) from NPCs co-cultured with treated microglia” value [1]?
A: Its value is “partially counteracted the adverse effect of the aggregated Aβ”.
